Drawing on patent publication US4396613A, “23-Ester derivatives of DMT and method of using same” (Eli Lilly and Company, priority 1981, dated 1983), this text covers MIC for five molecules.

Common to all, as to format: cell-based
Assay [1] has as its system Haemophilus influenzae Holt. The assay is described as follows: standard agar-dilution assay (MIC). As to conditions: ampicillin-sensitive strain, unit assumed. The procedure: (§1) The MIC's in Table II were determined by standard agar-dilution assays. The MIC's in Table III were obtained using a conventional broth-dilution microtiter test.
The test system of assay [2] is Streptococcus pyogenes C203. The assay is described as follows: standard agar-dilution assay (MIC). As to conditions: unit assumed. The procedure: as §1
Assay [3] concerns Staphylococcus aureus X1.1. The assay is described as follows: standard agar-dilution assay (MIC). To be noted: unit assumed. The procedure:
as §1

In assay [4] the test system is Streptococcus Group 9960. The assay can be described thus: standard agar-dilution assay (MIC). To be noted: unit assumed. Here is the method:
as §1

In assay [5] the test system is Haemophilus influenzae R252. The assay can be described thus: standard agar-dilution assay (MIC). As to conditions: Haemophilus influenzae R252, ampicillin-resistant strain, unit assumed. The procedure: as §1
The test system of assay [6] is Staphylococcus epidermidis EPI1. The assay can be described thus: standard agar-dilution assay (MIC). To be noted: unit assumed. The procedure:
as §1

Assay [7] deals with Staphylococcus epidermidis EPI2. The assay can be described thus: standard agar-dilution assay (MIC). To be noted: unit assumed. Here is the method: as §1
Assay [8] deals with Streptococcus Group D X66. The assay is described as follows: standard agar-dilution assay (MIC). As to conditions: unit assumed. The procedure: as §1
Assay [9] deals with Staphylococcus aureus S13E. The assay can be described thus: standard agar-dilution assay (MIC). To be noted: unit assumed. Here is the method: as §1
In assay [10] the test system is Streptococcus pneumoniae Park I. To be noted: agar dilution, unit assumed. Here is the method:
as §1
(In agar dilution, organisms are placed on agar that contains the substance at set levels.)

Assay [11] has as its system Mycoplasma gallisepticum. The assay is described as follows: conventional broth-dilution microtiter test (MIC). As to conditions: unit assumed. Here is the method:
as §1

For assay [12], the system named is Mycoplasma hyorhinis. The assay is described as follows: conventional broth-dilution microtiter test (MIC). To be noted: unit assumed. The procedure: as §1
The subject of assay [13] is Streptococcus sp. 80. The assay is described as follows: conventional broth-dilution microtiter test (MIC). As to conditions: unit assumed. The procedure: as §1
For assay [14], the system named is Pasteurella multocida 60A. The assay can be described thus: conventional broth-dilution microtiter test (MIC). As to conditions: avian isolate, unit assumed. The procedure:
as §1

In assay [15] the test system is Pasteurella multocida 17E. The assay is described as follows: conventional broth-dilution microtiter test (MIC). As to conditions: bovine isolate, unit assumed. Here is the method: as §1
The test system of assay [16] is Staphylococcus aureus. The assay can be described thus: conventional broth-dilution microtiter test (MIC). To be noted: unit assumed. Here is the method:
as §1

The test system of assay [17] is Staphylococcus aureus V41. The assay can be described thus: standard agar-dilution assay (MIC). As to conditions: Staphylococcus aureus V41, penicillin-resistant strain, unit assumed. Here is the method: as §1
^b Penicillinresistant strain

For assay [18], the system named is Staphylococcus aureus X400. The assay is described as follows: standard agar-dilution assay (MIC). To be noted: Staphylococcus aureus X400, methicillin-resistant strain, unit assumed. Here is the method:
as §1
^c Methicillinresistant-strain

The test system of assay [19] is Mycoplasma synoviae. The assay is described as follows: conventional broth-dilution microtiter test (MIC). To be noted: unit assumed. Here is the method: as §1

In brackets after ≈: the same amount, converted by molar mass.

Turning to `CCC1OC(=O)CC(O)C(C)C(OC2OC(C)C(OC3CC(C)(O)C(O)C(C)O3)C(N(C)C)C2OC(C)=O)C(CC=O)CC(C)C(=O)C=CC(C)=CC1COC(=O)CCc1ccccc1` (stereo not shown) [Compound 13], the MIC was 2 µg/mL (≈ 2.18 µM) in assay [1]; 0.25 µg/mL (≈ 0.273 µM) in assay [2]; 0.25 µg/mL (≈ 0.273 µM) in assay [3]; 0.5 µg/mL (≈ 0.546 µM) in [4]; 2 µg/mL (≈ 2.18 µM) in assay [5]; 1 µg/mL (≈ 1.09 µM) in assay [6]. Besides, the MIC is 1 µg/mL (≈ 1.09 µM) in assay [7]; 0.5 µg/mL (≈ 0.546 µM) in assay [8]; 0.5 µg/mL (≈ 0.546 µM) in assay [9]; 0.015 µg/mL (≈ 0.0164 µM) in assay [10]; at most 0.048 µg/mL in assay [11]; 3.12 µg/mL (≈ 3.41 µM) in assay [12]. Besides, the MIC is at most 0.048 µg/mL in assay [13]; 12.5 µg/mL (≈ 13.6 µM) in assay [14]; 1.56 µg/mL (≈ 1.7 µM) in [15]; 0.78 µg/mL (≈ 0.851 µM) in [16]; 1 µg/mL (≈ 1.09 µM) in [17]; 1 µg/mL (≈ 1.09 µM) in [18].

For `CCC1OC(=O)CC(O)C(C)C(OC2OC(C)C(OC3CC(C)(O)C(O)C(C)O3)C(N(C)C)C2OC(C)=O)C(CC=O)CC(C)C(=O)C=CC(C)=CC1COC(=O)NCc1ccccc1` (stereo not shown) [Compound 30], the MIC in assay [1] stood at 8 µg/mL (≈ 8.72 µM); in assay [2] it was 0.5 µg/mL (≈ 0.545 µM); in assay [3], 0.5 µg/mL (≈ 0.545 µM); in [4], 0.5 µg/mL (≈ 0.545 µM); in assay [5], 4 µg/mL (≈ 4.36 µM); in [6] it was 0.5 µg/mL (≈ 0.545 µM). Further, the MIC in assay [7] was 0.5 µg/mL (≈ 0.545 µM); in assay [8] it was 0.5 µg/mL (≈ 0.545 µM); in [9], 0.5 µg/mL (≈ 0.545 µM); in [11] it was 0.39 µg/mL (≈ 0.425 µM); in [12] it was 1.56 µg/mL (≈ 1.7 µM); in assay [13] it was 0.78 µg/mL (≈ 0.851 µM). In addition, the MIC in assay [14] came out at 12.5 µg/mL (≈ 13.6 µM); in assay [19], 0.78 µg/mL (≈ 0.851 µM); in [17], 1 µg/mL (≈ 1.09 µM); in assay [18], 0.5 µg/mL (≈ 0.545 µM).

For `CCC1OC(=O)CC(O)C(C)C(OC2OC(C)C(OC3CC(C)(O)C(O)C(C)O3)C(N(C)C)C2OC(C)=O)C(CC=O)CC(C)C(=O)C=CC(C)=CC1COC(=O)C(Cl)(Cl)Cl` (stereo not shown) [Compound 16], the MIC in assay [1] amounted to 2 µg/mL (≈ 2.15 µM); in assay [2], 0.5 µg/mL (≈ 0.538 µM); in [3], 1 µg/mL (≈ 1.08 µM); in assay [4] it was 1 µg/mL (≈ 1.08 µM); in assay [5] it was 2 µg/mL (≈ 2.15 µM); in assay [6], 1 µg/mL (≈ 1.08 µM). Further, the MIC in assay [7] worked out at 4 µg/mL (≈ 4.3 µM); in assay [8], 1 µg/mL (≈ 1.08 µM); in assay [9], 1 µg/mL (≈ 1.08 µM); in assay [10], 0.03 µg/mL (≈ 0.0323 µM); in assay [11], 0.39 µg/mL (≈ 0.42 µM); in assay [12] it was 3.12 µg/mL (≈ 3.36 µM). For the same molecule, the MIC in assay [13] came to 0.39 µg/mL (≈ 0.42 µM); in assay [14], 12.5 µg/mL (≈ 13.5 µM); in [15], 6.25 µg/mL (≈ 6.73 µM); in assay [16], 1.56 µg/mL (≈ 1.68 µM); in assay [17] it was 2 µg/mL (≈ 2.15 µM); in assay [18], 4 µg/mL (≈ 4.3 µM).

In the case of `CCC(=O)OCC1C=C(C)C=CC(=O)C(C)CC(CC=O)C(OC2OC(C)C(OC3CC(C)(O)C(O)C(C)O3)C(N(C)C)C2OC(C)=O)C(C)C(O)CC(=O)OC1CC` (stereo not shown) [Compound 5, 2'-O-Acetyl-23-O-propionyl DMT], the MIC in assay [1] was found to be 16 µg/mL (≈ 19 µM); in assay [2], 0.5 µg/mL (≈ 0.595 µM); in assay [3], 0.5 µg/mL (≈ 0.595 µM); in assay [4] it was 1 µg/mL (≈ 1.19 µM); in assay [5], 32 µg/mL (≈ 38.1 µM); in assay [6], 1 µg/mL (≈ 1.19 µM). The MIC in [7] is 1 µg/mL (≈ 1.19 µM); in assay [8], 1 µg/mL (≈ 1.19 µM); in assay [9], 1 µg/mL (≈ 1.19 µM); in assay [10], 0.5 µg/mL (≈ 0.595 µM); in assay [11], at most 0.024 µg/mL; in [12] it was 1.56 µg/mL (≈ 1.86 µM). Moreover, the MIC in [13] is at most 0.78 µg/mL; in assay [14] it was 12.5 µg/mL (≈ 14.9 µM); in assay [19], 0.097 µg/mL (≈ 0.115 µM); in [15], 6.25 µg/mL (≈ 7.44 µM); in assay [17] it was 0.5 µg/mL (≈ 0.595 µM); in assay [18], 1 µg/mL (≈ 1.19 µM).

As to `CCC1OC(=O)CC(O)C(C)C(OC2OC(C)C(OC3CC(C)(O)C(O)C(C)O3)C(N(C)C)C2OC(C)=O)C(CC=O)CC(C)C(=O)C=CC(C)=CC1COC(=O)Cc1ccc(Cl)cc1` (stereo not shown) [Compound 14, 2'-O-Acetyl-23-O-(p-chlorophenylacetyl)-DMT], the MIC in assay [1] stood at 4 µg/mL (≈ 4.27 µM); in [2], 0.5 µg/mL (≈ 0.534 µM); in assay [3], 0.5 µg/mL (≈ 0.534 µM); in assay [4], 1 µg/mL (≈ 1.07 µM); in assay [5], 4 µg/mL (≈ 4.27 µM); in assay [6] it was 1 µg/mL (≈ 1.07 µM). Further, the MIC in assay [7] was 2 µg/mL (≈ 2.14 µM); in assay [8] it was 1 µg/mL (≈ 1.07 µM); in [9], 1 µg/mL (≈ 1.07 µM); in assay [11], below 0.048 µg/mL; in [12], 6.25 µg/mL (≈ 6.67 µM); in assay [13], 0.78 µg/mL (≈ 0.833 µM). Also, the MIC turned out to be 6.25 µg/mL (≈ 6.67 µM) in assay [14]; 0.78 µg/mL (≈ 0.833 µM) in [19]; 3.12 µg/mL (≈ 3.33 µM) in [15]; 0.39 µg/mL (≈ 0.416 µM) in [16]; 2 µg/mL (≈ 2.14 µM) in [17]; 2 µg/mL (≈ 2.14 µM) in assay [18].
